The source of these data is the Bradley open melting point set (2014).

Each structure is given as a SMILES string. Values joined by “and” are separate entries in the source; they are usually repeats but may differ in a detail not shown here. Equal values may be shown once. Where a name gives a salt, the structure may show the parent alone.

Consider `Clc1ccc(Cl)nc1` [2,5-dichloropyridine], for which the melting point worked out at 61 °C.

Turning to `CCC1OC(=O)C(C)C(OC2CC(C)(OC)C(O)C(C)O2)C(C)C(OC2OC(C)CC(N(C)C)C2O)C(C)(O)CC(C)C(=O)C(C)C(O)C1(C)O` (stereo not drawn), the melting point was 135 °C.

As for `c1ccc2nc3ccccc3nc2c1` [Phenazine], the melting point turned out to be 158 °C.

In turn, `CC(=O)c1sc(-c2ccccc2)cc1N` [2-acetyl-3-amino-5-phenylthiophene] gave a melting point of 121 °C.

`CC(C)O` [2-propanol] registered a melting point of -88 °C.

On to `Clc1ccccc1C(Cl)(Cl)Cl` [2-chlorobenzotrichloride], for which the melting point was 30 °C.

Turning to `Cc1cc(C(=O)O)ccc1Cl` [4-chloro-3-methylbenzoic acid], the melting point was 214 °C.

`CS(C)=O` [dimethyl_sulfoxide] gave a melting point of 18 °C.

The molecule `Cc1ccc[n+]([O-])c1` [3-picoline n-oxide] registered a melting point of 38 °C.

In turn, `COc1cc([C@@H]2c3cc4c(cc3[C@@H](O[C@@H]3O[C@@H]5CO[C@@H](C)O[C@H]5[C@H](O)[C@H]3O)[C@H]3COC(=O)[C@H]23)OCO4)cc(OC)c1O` [Etoposide] had a melting point of 244 °C.

Regarding `c1ccc2c(c1)CCCN2` [1,2,3,4-tetrahydroquinoline], the melting point turned out to be 14 °C.

In turn, `O=C1CCC(=O)CC1` [1,4-cyclohexanedione] came in with a melting point of 78 °C.

`O=C(O)c1ccccc1` [benzoic acid]: the melting point worked out at 122 °C.

Consider `OC1CCOc2ccccc21` (stereo not drawn) [4-chromanol], for which the melting point amounted to 40 °C.

Regarding `Cc1cccc([N+](=O)[O-])c1` [3-nitrotoluene], the melting point is 16 °C.

In the case of `CCC(C)(C)Cl` [2-chloro-2-methylbutane], the melting point was -73 °C.

Molecule `CC12CCC(C=C/C1=N\O)C2(C)C` (stereo not drawn) [(2E)-N-hydroxy-1,8,8-trimethylbicyclo[3.2.1]oct-3-en-2-imine] displayed a melting point of 146 °C.

Regarding `O=C(O)c1cc(Cl)ccc1O` [5-chlorosalicylic acid], the melting point was found to be 174 °C.

On to `CC(Cc1oc2c(c3c(c4ccccc42)OC2CC(=O)OC32)c(=O)c1[Si](C)(C)C)O[Si](C)(C)C(C)(C)C` (stereo not drawn), for which the melting point amounted to 190 °C.

Turning to `CC(CCc1ccccc1)NCC(O)c1ccc(O)c(C(N)=O)c1` (stereo not drawn) [Labetalol], the melting point is 196 °C.

For `NC(=O)c1ccccc1Cl` [o-chlorobenzamide], the melting point is 143 °C.

`CC(=O)N1CCN(c2ccc(OC[C@@H]3CO[C@@](Cn4ccnc4)(c4ccc(Cl)cc4Cl)O3)cc2)CC1` [Ketoconazole] returned a melting point of 146 °C.

`CCCCC(C)CC` (stereo not drawn) [3-methylheptane] yielded a melting point of -121 °C.

For `COC=O` [Methyl formate], the melting point is -100 °C.

Turning to `COc1ccc(OC)c(C(O)CNC(=O)CN)c1` (stereo not drawn) [Midodrine], the melting point came to 202 °C.

Regarding `CC(C)(S)[C@@H](N)C(=O)O` [Penicillamine], the melting point was found to be 198 °C.

In turn, `Clc1c2ccccc2cc2ccccc12` [9-Chloroanthracene] yielded a melting point of 104 °C.

`CC(=O)Oc1cccc(C(C)=O)c1` [3-acetoxy_acetophenone] registered a melting point of 44 °C.

As for `Cc1cc(-c2ccc(NC=O)c(C)c2)ccc1NC=O` [N,N'-(3,3'-dimethylbiphenyl-4,4'-diyl)diformamide], the melting point was 268 °C.

The molecule `O=C1c2ccccc2C(=O)c2c1ccc(O)c2O` [1,2-Dihydroxy-9,10-anthraquinone] showed a melting point of 281 °C.

`Cc1cc(C)c(C)cc1C` [1,2,4,5-tetramethylbenzene] came in with a melting point of 79 °C.

The molecule `C1CCC(C2CCCCC2)CC1` [bicyclohexyl] yielded a melting point of 4 °C.

Turning to `O=Cc1ccc(B(O)O)cc1F` [3-fluoro-4-formylbenzeneboronic acid], the melting point amounted to 240 °C.

`Nc1ccc([N+](=O)[O-])cc1Cl` [2-Chloro-4-nitroaniline] gave a melting point of 108 °C.

Molecule `CC(C)NCC1CCc2cc(CO)c([N+](=O)[O-])cc2N1` (stereo not drawn) [oxamniquine] showed a melting point of 148 °C.

On to `CCOCCOC(C)=O` [2-ethoxyethyl_acetate], for which the melting point was -61 °C.

Regarding `Cc1c(C)c(/C=CC(C)=CC=CC(/C)=CC(=O)O)c(C)cc1OC` [Acitretin], the melting point worked out at 229 °C.

`Oc1ccc(Cl)c2cccnc12` [5-chloro-8-hydroxyquinoline] showed a melting point of 123 °C.

Regarding `ClCC(Cl)(Cl)Cl` [1,1,1,2-Tetrachloroethane], the melting point was -70 °C.

With `O=S(=O)(Cl)c1cccs1` [thiophene-2-sulfonyl chloride], the melting point stood at 30 °C.

`Cc1ccc(O)c(/N=N/c2c(O)cc(S(=O)(=O)O)c3ccccc23)c1` returned a melting point of 300 °C.

With `COc1ccc(Cc2cnc(N)nc2N)cc1OC` [diaveridine], the melting point was 233 °C.

In turn, `CC(=O)c1ccc(S(=O)(=O)NC(=O)NC2CCCCC2)cc1` [Acetohexamide] came in with a melting point of 189 °C.

For the molecule `O=C(CCl)c1ccc(O)c(O)c1` [2-chloro-3',4'-dihydroxyacetophenone], the melting point was 174 °C.

`COS(=O)(=O)c1ccc(C)cc1` [methyl_p-toluenesulfonate] gave a melting point of 79 °C.

As to `CC12CCC3C(CCC4(C)CC5(CCC34C)OCCO5)C1CCC2=O` (stereo not drawn), the melting point turned out to be 159 °C.

As for `Cc1ccc(O)c(C(C)(C)C)c1` [2-tert-butyl-4-methylphenol], the melting point stood at 52 °C.

Take `NC(=O)C12CC3CC(CC(C3)C1)C2` [adamantane-1-carboxamide]: the melting point amounted to 187 °C.

The molecule `O=Cc1ccco1` [2-Furaldehyde] showed a melting point of -36 °C.

The molecule `COc1ccc(C=O)cc1OC` [3,4-dimethoxybenzaldehyde] gave a melting point of 44 °C.

Regarding `COC(=O)[C@H](CCC(=O)O)NC(=O)OCc1ccccc1` [N-benzyloxycarbonyl-l-glutamic acid 1-methyl ester], the melting point was found to be 67 °C.

`C[C@]12CCC(=O)C=C1CC[C@@H]1[C@@H]2[C@@H](O)C[C@@]2(C)[C@H]1CC[C@]2(O)C(=O)CO` [hydrocortisone] displayed a melting point of 214 °C.

As for `Oc1ccc(OCc2ccccc2)cc1` [4-benzyloxyphenol], the melting point is 120 °C.

`c1ccc(N2CCNCC2)cc1` [1-phenylpiperazine] gave a melting point of 18 °C.

`c1ccc2c(c1)cc1ccc3cccc4ccc2c1c34` [benzo(a)pyrene]: the melting point stood at 179 °C.

Regarding `OB(O)c1cccc2ncccc12` [quinoline-5-boronic acid], the melting point worked out at 146 °C.

With `Cn1cc[nH]c1=S` [Methimazole], the melting point was 146 °C.

`C[C@@H]1C[C@H]1C` (relative stereo) [trans-1,2-dimethylcyclopropane] displayed a melting point of -150 °C.

As to `COc1ccccc1Br` [2-bromoanisole], the melting point was 3 °C.

For the molecule `CC(O[S+]([O-])C(C)(C)C)C(O)(c1ccccc1)c1ccccc1` (stereo not drawn), the melting point was determined as 136 °C.

In turn, `CC(C)[C@@H](C)/C=C/[C@@H](C)[C@H]1CC[C@H]2C3=CC=C4C[C@@H](O)CC[C@]4(C)[C@H]3CC[C@]12C` [(3beta,22E)-Ergosta-5,7,22-trien-3-ol] came in with a melting point of 160 °C.

For `Clc1c(Cl)c(Cl)c(Cl)c(Cl)c1Cl` [hexachlorobenzene], the melting point worked out at 231 °C.

The molecule `Cc1ccc(-n2c(C)ccc2C)cc1` [OSM-S-26] returned a melting point of 45.5 °C.

On to `COc1ccc(C=Nc2ccccc2)cc1` [N-(4-methoxybenzylidene)aniline], for which the melting point was 65 °C and 62.3 °C and 63 °C.

Take `O=c1[nH]c(=O)n([C@@H]2O[C@H](CO)[C@@H](O)[C@H]2O)cc1Br` [5-bromouridine]: the melting point is 192 °C.

For `O=c1[nH]c2ccccc2n1CCCN1CCC(n2c(=O)[nH]c3cc(Cl)ccc32)CC1` [Domperidone], the melting point came out at 242 °C.

`ClC(Cl)Cl` [trichloromethane] came in with a melting point of -63 °C.

In the case of `Cc1ccc(C(=O)O)cc1Cl` [3-chloro-4-methylbenzoic acid], the melting point worked out at 199 °C.

The molecule `C=CCCCCCCCCC` [1-undecene] yielded a melting point of -49 °C.

Molecule `ClC1CCCCC1` [chlorocyclohexane] returned a melting point of -44 °C.

The molecule `Cc1ccc(C=O)cc1` [p-tolualdehyde] yielded a melting point of -6 °C.

Molecule `CC(C)(C)OC(=O)C(C(=O)Cc1ccccc1)c1ccccc1` (stereo not drawn) [tert-butyl 3-oxo-2,4-diphenylbutanoate] came in with a melting point of 83 °C.

As for `O=C(OC(=O)/C(=C/c1ccccc1)Cc1ccccc1)/C(=C/c1ccccc1)Cc1ccccc1` [(2E)-2-benzyl-3-phenylprop-2-enoic anhydride], the melting point stood at 108 °C.

In turn, `CC(C)NCC(O)COc1cccc2ccccc12` (stereo not drawn) [Propranolol] returned a melting point of 164 °C.

Molecule `c1ccc(COc2cccc(-c3nnn[nH]3)c2)cc1` [5-(3-benzyloxyphenyl)-1h-tetrazole] returned a melting point of 209 °C.

Molecule `O=C(Oc1ccccc1C(=O)O)c1ccccc1O` [salicylsalicylic acid] registered a melting point of 135 °C.

Consider `CC(=O)O` [acetic acid], for which the melting point came to 17 °C.

In turn, `OB(O)c1cc2ccccc2s1` [benzo[b]thiophene-2-boronic acid] displayed a melting point of 255 °C.

For `O=Cc1ccccc1[N+](=O)[O-]` [o-nitrobenzaldehyde], the melting point worked out at 46 °C.

`COc1ccc(C(C)=CC(=O)O)c(OC)c1` [Hepadial]: the melting point came to 149 °C.

Turning to `Cc1cc(C)cc(O)c1` [3,5-dimethylphenol], the melting point is 63.4 °C and 65.5 °C.

`CCCCN` [Butan-1-amine] returned a melting point of -49 °C.

Take `CCCCOC(=O)[C@@H](C)Oc1ccc(Oc2ccc(C(F)(F)F)cn2)cc1`: the melting point stood at 5 °C.

The molecule `c1cc2c3c(cccc3c1)CC2` [Acenaphthene] registered a melting point of 95 °C.

`O=[N+]([O-])c1ccco1` [2-Nitrofuran] came in with a melting point of 31 °C.

In turn, `NC(=O)c1c(Cl)cccc1Cl` [2,6-dichlorobenzamide] showed a melting point of 199 °C.

`C=C[C@H]1CN2CC[C@H]1C[C@H]2[C@H](O)c1ccnc2ccc(OC)cc12` [quinine]: the melting point was 176 °C and 174 °C.

In turn, `Cc1c(C#N)c2ccccc2n1O` [1-hydroxy-2-methyl-1H-indole-3-carbonitrile] displayed a melting point of 159 °C.
